Source: patent publication US20100016232A1, “Treatment Of Inflammatory Diseases With Mammal Beta Defensins” (Novozymes A/S, priority 2008, published 2010)
Where no end group is shown, it is not given here.

Columns and labels:
[1] = system: DSS-induced colitis in the mouse; assay: 10-day DSS-induced colitis, Disease Activity Index (Example 5); format: in vivo
Procedure: (§1) Animals were divided into 5 experimental groups.
Colitis was induced in mice by supplementing their drinking water with DSS 2% for 7 days.
Daily clinical assessment of DSS-treated animals was carried out, with the calculation of a validated clinical Disease Activity Index (DAI) ranging from 0 to 4 according to the following parameters: stool consistency, presence or absence of rectal bleeding and weight loss:
Bodyweight loss was calculated as the percent difference between the original bodyweight (Day 1) and the actual bodyweight on each experimental day (2-10).
The appearance of diarrhoea is defined as mucus/faecal material adherent to anal fur. Rectal bleeding is defined as diarrhoea containing visible blood/mucus or gross rectal bleeding. The maximum score of the DAI each day is 12.

[2] = system: TNF-alfa secretion from PBMC; assay: TNF-alfa secretion from PBMC, ELISA; format: cell-based, human
Procedure: (§2) Peripheral blood was drawn from healthy volunteers (with approval from the relevant ethical committee in Denmark). Heparinized blood was diluted 1/1 v/v with RPMI and were subjected to Ficoll density centrifugation within 2 h of drawing. Plasma was collected from the top from individual donors and was kept on ice until it was used at 2% in the culture medium (autologous culture medium). Isolated PBMC were resuspended in autologous culture medium and seeded in 96-well culture plates with 255.000 cells per well in a total of 200 μl. […] The concentrations used for stimulation were optimized on 3 different donors in initial experiments, for LPS two different concentrations were used to be sure to be on a cytokine level that is possible to modulate. In some experiments PBMC were treated with Dexamethason and Indomethacin alone and together with LPS or LTA as a control on downregulation of inflammatory cytokines. The supernatants were collected after incubation at 37° C. for 24 hours, and stored at −80° C. until cytokine measurement. Viability was measured by Alamar Blue (Biosource, DALL 1100) in all experiments and in some cases also by MTS (Promega) according to manufacturer's instruction and was in some experiments also judged by counting of the cells by a Nucleocounter.
(§3) Cytokine production in supernatants was measured by flow cytometry with a human inflammation cytometric bead array (CBA) according to manufacturer's instructions (BD) on a FACSarray flow cytometer. The following cytokines were measured: IL-8, IL-1β, IL-10, TNF, IL-12 p70, IL-6. In some experiments, cytokines were measured by ELISA kits from R&D systems (IL-10, TNF-α, IL-1β) according to the manufacturer' instruction.
(§4) In Tables 6, 7 and 8, supernatants from another donor were analysed for cytokines by ELISA instead of by a cytometric bead array by flowcytometry and here the same were observed, although the sensitivity of the assay is lower and the detection limit much higher and therefore the effects were not as significant.

[3] = system: IL-10 secretion from PBMC; assay: IL-10 secretion from PBMC, ELISA; format: cell-based, human
Procedure: as §2, §3, §4

[4] = system: DSS-induced colitis in the mouse; assay: 10-day DSS-induced colitis, colon histological score (Example 5); format: in vivo; details: day 10
Source text: as §1
Their colons were removed and their length and weight measured after exclusion of the caecum.
Two sections (proximal and distal) of colon were taken from each animal and preserved in neutral buffered formalin for subsequent histological analysis (haematoxylin and eosin staining) according to the following scoring system:
Two sections (proximal and distal) of colon were taken from each animal, processed for histological analysis (haematoxylin and eosin staining) and scored by a blind observer according to the histological scoring system described above.

[5] = system: TNF production in supernatants from immature dendritic cells; assay: TNF production, immature dendritic cells (MUTZ-3 derived); format: cell-based, human
Procedure: To generate a dendritoid cell line, the human myeloid leukaemia cell lines MUTZ-3 (1×10^5 cells/ml) was differentiated for 7 days in the presence of rhGM-CSF (150 ng/ml) and rhIL-4 (50 ng/ml) into immature DCs. Medium was exchanged every 2-3 days.
as §3

[6] = system: IL-23, human CD14+ monocyte-derived dendritic cells; assay: IL-23 in supernatants of human CD14+ monocyte-derived dendritic cells, ELISA; format: cell-based
Procedure: The DCs were prepared according to a modified protocol originally described by Romani et al. Briefly, peripheral blood mononuclear cells (PBMCs) were purified from buffy coats of healthy donors by centrifugation over a Ficoll-pague (GE-healthcare) gradient. Monocytes were isolated from PBMC by positive selection of CD14+ cells by magnetic beads (Dynal, Invitrogen) according to the manufacturer's instructions. The CD14+ monocytes were cultured in 6-well plates in RPMI/2% Human AB Serum recombinant human recombinant granulocyte-macrophage colony-stimulating factor (GM-CSF, 20 ng/ml) and IL-4 (20 ng/ml) (PeproTech) for 6 days, replenishing the medium/cytokines after 2 and 5 days.
Cell culture supernatants were collected and stored at −80° C. Amounts of IL-23 was measured by standard sandwich ELISA using commercially available antibodies and standards according to the manufacturer's protocols (eBioscience).

Substance: hBD2: human beta defensin 2, SEQ ID NO:2; produced recombinantly in E. coli (Example 1); hBD2 of Tables 16-18 was prepared by chemical synthesis (GIGDPVTCLKSGAICHPVFCPRRYKQIGTCGLPGTKCCKKP; ends and bridges not checked; cysteine pairing not given here; listed as Homo sapiens)
- DAI score ([1]; 0.1 mg/kg i.v. daily, Day 1): 0.00
- DAI score ([1]; 0.1 mg/kg i.v. daily, Day 2): 0.20
- DAI score ([1]; 0.1 mg/kg i.v. daily, Day 3): 0.80
- DAI score ([1]; 0.1 mg/kg i.v. daily, Day 4): 2.90
- DAI score ([1]; 0.1 mg/kg i.v. daily, Day 5): 2.80
- DAI score ([1]; 0.1 mg/kg i.v. daily, Day 6): 3.20
- DAI score ([1]; 1 mg/kg i.v. daily, Day 1): 0.00
- DAI score ([1]; 1 mg/kg i.v. daily, Day 2): 0.00
- DAI score ([1]; 1 mg/kg i.v. daily, Day 3): 0.22
- DAI score ([1]; 1 mg/kg i.v. daily, Day 4): 2.22
- DAI score ([1]; 1 mg/kg i.v. daily, Day 5): 2.44
- DAI score ([1]; 1 mg/kg i.v. daily, Day 6): 2.89
- DAI score ([1]; 1 mg/kg i.v. daily, Day 7): 2.22
- DAI score ([1]; 1 mg/kg i.v. daily, Day 8): 3.67
- DAI score ([1]; 1 mg/kg i.v. daily, Day 9): 5.22
- DAI score ([1]; 10 mg/kg i.v. daily, Day 1): 0.00
- DAI score ([1]; 10 mg/kg i.v. daily, Day 2): 0.60
- DAI score ([1]; 10 mg/kg i.v. daily, Day 3): 1.00
- DAI score ([1]; 10 mg/kg i.v. daily, Day 4): 3.67
- DAI score ([1]; 10 mg/kg i.v. daily, Day 5): 3.11
- DAI score ([1]; 10 mg/kg i.v. daily, Day 6): 3.22
- DAI score ([1]; 10 mg/kg i.v. daily, Day 7): 2.11
- DAI score ([1]; 10 mg/kg i.v. daily, Day 8): 4.11
- DAI score ([1]; 10 mg/kg i.v. daily, Day 9): 6.78
- DAI score ([1]; 10 mg/kg i.v. daily, Day 10): 7.33
- TNF-α ([2]; LPS 0.6 ng/ml, hBD2 1 μg/ml): 0.70 ng/mL
- TNF-α ([2]; LPS 0.6 ng/ml, hBD2 10 μg/ml): 0.59 ng/mL
- TNF-α ([2]; LPS 0.6 ng/ml, hBD2 100 μg/ml): 0.41 ng/mL
- TNF-α ([2]; LPS 20 ng/ml, hBD2 1 μg/ml): 1.18 ng/mL
- TNF-α ([2]; LPS 20 ng/ml, hBD2 10 μg/ml): 0.49 ng/mL
- TNF-α ([2]; LPS 20 ng/ml, hBD2 100 μg/ml): 0.53 ng/mL
- TNF-α ([2]; LTA 1.25 μg/ml, hBD2 1 μg/ml): 0.65 ng/mL
- TNF-α ([2]; LTA 1.25 μg/ml, hBD2 10 μg/ml): 0.27 ng/mL
- TNF-α ([2]; LTA 1.25 μg/ml, hBD2 100 μg/ml): 0.21 ng/mL
- IL-10 ([3]; LPS 0.6 ng/ml, hBD2 10 μg/ml): 0.04 ng/mL
- IL-10 ([3]; LPS 0.6 ng/ml, hBD2 100 μg/ml): 0.14 ng/mL
- IL-10 ([3]; LPS 20 ng/ml, hBD2 10 μg/ml): 0.34 ng/mL
- IL-10 ([3]; LPS 20 ng/ml, hBD2 100 μg/ml): 0.46 ng/mL
- Histology Score Distal Colon ([4]; 0.1 mg/kg i.v. daily): 3.67
- Histology Score Distal Colon ([4]; 1 mg/kg i.v. daily): 4.13
- Histology Score Distal Colon ([4]; 10 mg/kg i.v. daily): 4.78
- TNF ([5]; LPS 1.5 μg/ml, hBD2 1 μg/ml): 18.04 pg/mL
- TNF ([5]; LPS 1.5 μg/ml, hBD2 10 μg/ml): 13.8 pg/mL
- TNF ([5]; LPS 1.5 μg/ml, hBD2 100 μg/ml): 7.66 pg/mL
- TNF ([5]; LTA 1.5 μg/ml, hBD2 1 μg/ml): 0.00 pg/mL
- TNF ([5]; LTA 1.5 μg/ml, hBD2 10 μg/ml): 2.76 pg/mL
- TNF ([5]; LTA 1.5 μg/ml, hBD2 100 μg/ml): 5.22 pg/mL
- TNF ([5]; Medium, hBD2 1 μg/ml): 4.64 pg/mL
- TNF ([5]; Medium, hBD2 10 μg/ml): 1.89 pg/mL
- TNF ([5]; Medium, hBD2 100 μg/ml): 0.00 pg/mL
- IL-23 ([6]; LPS (100 ng/ml) and IFN-γ (20 ng/ml), hBD2 1 μg/ml): 3833 pg/mL
- IL-23 ([6]; LPS (100 ng/ml) and IFN-γ (20 ng/ml), hBD2 10 μg/ml): 3308 pg/mL
- IL-23 ([6]; LPS (100 ng/ml) and IFN-γ (20 ng/ml), hBD2 30 μg/ml): 3042 pg/mL
- IL-23 ([6]; LPS (100 ng/ml) and IFN-γ (20 ng/ml), hBD2 100 μg/ml): 2145 pg/mL
- IL-23 ([6]; Unstimulated, hBD2 10 μg/ml): 451 pg/mL
